Among the data in US20240360126A1, “PYRAZOLO[3,4-B]PYRIDINE COMPOUNDS FOR THE TREATMENT OF AUTOIMMUNE DISEASE” (Hoffmann-La Roche Inc., priority 2021, published 2024) are IC50 values, retold here.

The test deals with T1, TLR9 (Homo sapiens, UniProt Q9NR96).
T1 sequence (Q9NR96 26-1032): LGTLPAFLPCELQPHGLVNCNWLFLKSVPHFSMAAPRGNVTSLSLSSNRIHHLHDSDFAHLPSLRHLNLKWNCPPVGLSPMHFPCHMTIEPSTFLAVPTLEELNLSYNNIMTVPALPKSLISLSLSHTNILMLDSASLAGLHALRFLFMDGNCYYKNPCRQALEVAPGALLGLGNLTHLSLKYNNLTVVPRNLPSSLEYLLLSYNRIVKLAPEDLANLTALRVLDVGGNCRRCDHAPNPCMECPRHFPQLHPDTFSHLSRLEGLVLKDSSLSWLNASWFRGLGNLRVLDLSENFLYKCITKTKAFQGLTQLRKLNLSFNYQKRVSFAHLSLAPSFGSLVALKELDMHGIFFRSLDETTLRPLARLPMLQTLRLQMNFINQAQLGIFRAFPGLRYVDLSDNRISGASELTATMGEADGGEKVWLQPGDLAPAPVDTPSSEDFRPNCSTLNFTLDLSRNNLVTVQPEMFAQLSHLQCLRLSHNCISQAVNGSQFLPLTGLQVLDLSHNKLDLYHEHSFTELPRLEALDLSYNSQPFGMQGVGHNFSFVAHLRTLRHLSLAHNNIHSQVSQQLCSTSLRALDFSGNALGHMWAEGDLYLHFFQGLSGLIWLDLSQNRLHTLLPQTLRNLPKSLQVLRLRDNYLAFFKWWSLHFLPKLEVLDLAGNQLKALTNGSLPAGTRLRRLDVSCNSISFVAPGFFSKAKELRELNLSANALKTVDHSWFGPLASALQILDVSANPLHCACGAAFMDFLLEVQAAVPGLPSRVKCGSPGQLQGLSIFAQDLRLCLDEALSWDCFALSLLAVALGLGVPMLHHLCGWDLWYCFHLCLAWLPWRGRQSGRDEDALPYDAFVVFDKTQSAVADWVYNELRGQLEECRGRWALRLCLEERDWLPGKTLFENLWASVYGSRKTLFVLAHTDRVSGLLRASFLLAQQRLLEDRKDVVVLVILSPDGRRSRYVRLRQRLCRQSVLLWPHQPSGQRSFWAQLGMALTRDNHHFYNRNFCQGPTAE
The experiment in a line: HEK293-Blue-hTLR-9 cells assay. It counts as cell-based. More on the design: host or cells: HEK293 (HEK-Blue hTLR9). The settings on record: HEK293-Blue-hTLR9 cells, ODN2006 stimulation, 20 hrs; read-out: HEK/hTLR9 IC50. The text has this: A stable HEK293-Blue-hTLR-9 cell line was purchased from InvivoGen (Cat. #: hkb-htlr9, San Diego, California, USA). These cells were originally designed for studying the stimulation of human TLR9 by monitoring the activation of NF-κB. A SEAP (secreted embryonic alkaline phosphatase) reporter gene was placed under the control of the IFN-β minimal promoter fused to five NF-κB and AP-1-binding sites. The SEAP was induced by activating NF-κB and AP-1 via stimulating HEK-Blue hTLR9 cells with TLR9 ligands. Therefore the reporter expression was declined by TLR9 antagonist under the stimulation of a ligand, such as ODN2006 (Cat. #: tlrl-2006-1, Invivogen, San Diego, California, USA), for incubation of 20 hrs. The cell culture supernatant SEAP reporter activity was determined using QiANTI-Blue™ kit (Cat. #: rep-qbl, Invivogen, San Diego, California, USA) at a wavelength of 640 nm, a detection medium that turns purple or blue in the presence of alkaline phosphatase.
HEK293-Blue-hTLR9 cells were incubated at a density of 250,000-450,000 cells/mL in a volume of 170 μL in a 96-well plate in Dulbecco's Modified Eagle's medium (DMEM) containing 4.5 g/L glucose, 50 U/mL penicillin, […], […], 10% (v/v) heat-inactivated fetal bovine serum with addition of 20 μL test compound in a serial dilution in the presence of final DMSO at 1% and 10 μL of 20 μM ODN2006 in above DMEM, perform incubation under 37° C. in a C02 incubator for 20 hrs. Then 20 μL of the supernatant from each well was incubated with 180 μl. Quanti-blue substrate solution at 37° C. for 2 h and the absorbance was read at 620˜655 nm using a spectrophotometer. The signaling pathway that TLR9 activation leads to downstream NF-κB activation has been widely accepted, and therefore similar reporter assay was modified for evaluating TLR9 antagonist.
Take `Cc1cc(N2CC[C@@H](c3ncc(N4CCOC[C@@H](N)C4)cc3C)[C@H](C)C2)c2cnn(C)c2n1` [Example 28, (6S)-4-[6-[(3S,4R)-1-(1,6-dimethylpyrazolo[3,4-b]pyridin-4-yl)-3-methyl-4-piperidyl]-5-methyl-3-pyridyl]-1,4-oxazepan-6-amine]: the IC50 came to 126 nM. To `COC[C@H]1CN(c2cnc([C@@H]3CCN(c4cc(C)nc5c4cnn5C)C[C@H]3C)c(C)c2)CCN1` [Example 29, 4-[(3S,4R)-4-[5-[(3R)-3-(methoxymethyl)piperazin-1-yl]-3-methyl-2-pyridyl]-3-methyl-1-piperidyl]-1,6-dimethyl-pyrazolo[3,4-b]pyridine] belongs 238 nM.

Take `Cc1cc(N2CC[C@@H](c3ncc(N4CC[C@@H](N)[C@H](F)C4)cc3C)[C@H](C)C2)c2cnn(C)c2n1` [Example 31, (3R,4R)-1-[6-[(3S,4R)-1-(1,6-dimethylpyrazolo[3,4-b]pyridin-4-yl)-3-methyl-4-piperidyl]-5-methyl-3-pyridyl]-3-fluoro-piperidin-4-amine]: the IC50 came to 219 nM. `Cc1cc(N2CC[C@@H](c3ncc(N4CC(C)(N)C4)cc3C)[C@H](C)C2)c2cnn(C)c2n1` [Example 32, 1-[6-[(3S,4R)-1-(1,6-dimethylpyrazolo[3,4-b]pyridin-4-yl)-3-methyl-4-piperidyl]-5-methyl-3-pyridyl]-3-methyl-azetidin-3-amine]: the IC50 was 186 nM. `Cc1cc(N2CC[C@@H](c3ncc(N4C[C@H]5NCCO[C@@H]5C4)cc3C)[C@H](C)C2)c2cnn(C)c2n1` [Example 33, (4aR,7aR)-6-[6-[(3S,4R)-1-(1,6-dimethylpyrazolo[3,4-b]pyridin-4-yl)-3-methyl-4-piperidyl]-5-methyl-3-pyridyl]-3,4,4a,5,7,7a-hexahydro-2H-pyrrolo[3,4-b][1,4]oxazine]: the IC50 is 79 nM. The result for `Cc1cc(N2CC[C@@H](c3ccc(N4CCNCC4)cn3)[C@H](C)C2)c2cnn(C)c2n1` [Example 34, 1,6-dimethyl-4-[(3S,4R)-3-methyl-4-(5-piperazin-1-yl-2-pyridyl)-1-piperidyl]pyrazolo[3,4-b]pyridine] reads 165 nM. To `Cc1cc(N2CC[C@H](c3ccc(N4CCNCC4)cn3)[C@@H](C)C2)c2cnn(C)c2n1` [Example 35, 1,6-dimethyl-4-[(3R,4S)-3-methyl-4-(5-piperazin-1-yl-2-pyridyl)-1-piperidyl]pyrazolo[3,4-b]pyridine] belongs 158 nM.

As to `CO[C@@H]1CN(c2ccc([C@H]3CCN(c4cc(C)nc5c4cnn5C)C[C@@H]3C)nc2)C[C@H]1N` [Example 36, (3R,4R)-1-[6-[(3R,4S)-1-(1,6-dimethylpyrazolo[3,4-b]pyridin-4-yl)-3-methyl-4-piperidyl]-3-pyridyl]-4-methoxy-pyrrolidin-3-amine], the IC50 was 170 nM.

`COC[C@H]1CN(c2ccc([C@H]3CCN(c4cc(C)nc5c4cnn5C)C[C@@H]3C)nc2)CCN1` [Example 37, 4-[(3R,4S)-4-[5-[(3R)-3-(methoxymethyl)piperazin-1-yl]-2-pyridyl]-3-methyl-1-piperidyl]-1,6-dimethyl-pyrazolo[3,4-b]pyridine]: the IC50 came out at 332 nM. The result for `Cc1cc(N2CC[C@H](c3ccc(N4CC5(CNCCO5)C4)cn3)[C@@H](C)C2)c2cnn(C)c2n1` [Example 38, 2-[6-[(3R,4S)-1-(1,6-dimethylpyrazolo[3,4-b]pyridin-4-yl)-3-methyl-4-piperidyl]-3-pyridyl]-5-oxa-2,8-diazaspiro[3.5]nonane] reads 192 nM; that for `CO[C@H]1CN(c2ccc([C@H]3CCN(c4cc(C)nc5c4cnn5C)C[C@@H]3C)nc2)CC[C@@H]1N` [Example 39, (3S,4S)-1-[6-[(3R,4S)-1-(1,6-dimethylpyrazolo[3,4-b]pyridin-4-yl)-3-methyl-4-piperidyl]-3-pyridyl]-3-methoxy-piperidin-4-amine], 211 nM. To `Cc1cc(N2CC[C@H](c3ccc(N4CCOC[C@@H](N)C4)cn3)[C@@H](C)C2)c2cnn(C)c2n1` [Example 40, (6S)-4-[6-[(3R,4S)-1-(1,6-dimethylpyrazolo[3,4-b]pyridin-4-yl)-3-methyl-4-piperidyl]-3-pyridyl]-1,4-oxazepan-6-amine] belongs 173 nM; to `Cc1cc(N2CC[C@H](c3ccc(N4CC[C@@H](N)[C@H](F)C4)cn3)[C@@H](C)C2)c2cnn(C)c2n1` [Example 41, (3R,4R)-1-[6-[(3R,4S)-1-(1,6-dimethylpyrazolo[3,4-b]pyridin-4-yl)-3-methyl-4-piperidyl]-3-pyridyl]-3-fluoro-piperidin-4-amine], 231 nM; to `Cc1cc(N2CC[C@H](c3ccc(N4CC(C)(N)C4)cn3)[C@@H](C)C2)c2cnn(C)c2n1` [Example 43, 1-[6-[(3R,4S)-1-(1,6-dimethylpyrazolo[3,4-b]pyridin-4-yl)-3-methyl-4-piperidyl]-3-pyridyl]-3-methyl-azetidin-3-amine], 203 nM.
